# Measured values from patent US12662530B2, “Anti-ADM-antibodies binding to the free N-terminus for accelerated transition of ADM-Gly to bio-ADM in patients with ADM-Gly/ bio-ADM ratio above a threshold and combination with vitamin C” (SphingoTec GmbH, priority 2020, dated 2026).
# Read-outs that look alike come from different tables or passages of the source.
# Test system: ADM-Gly to bio-ADM conversion
# Assay type: in vivo
# Details: for ADM-Gly/bioADM Ratio: Table 4, n 9
# Description: ADM-Gly was quantified as based on Weber et al. (Weber et al. 2017. JALM 2(2): 222-233) for bioactive ADM with the following modifications: the tracer-antibody used for ADM-Gly detection, labelled with MACN-acridinium-NHS, was directed to the C-terminal glycine of ADM-Gly. The assay was calibrated with synthetic ADM-Gly. […] All determined ADM-Gly concentrations were corrected for cross-reactivity as follows: For each ADM-Gly quantification additional quantification of bio-ADM in corresponding samples was performed using the Sphingotest® bio-ADM immunoassay. The corresponding bio-ADM values were used to determine the signal (RLU) generated with the antibody directed to C-terminal glycine of ADM on a bio-ADM calibration curve. The determined signal (RLU) was used to calculate the false-positive ADM-Gly concentration (pg/mL) using the ADM-Gly calibration curve. This concentration was subtracted from the initially determined ADM-Gly concentration. […]
# Critically ill subjects were from the AdrenOSS-I cohort described in example 7. Healthy and healthy HAM8101 treated subjects were from the study cohort described in example 6 (Geven et al. 2017. Intensive Care Med Exp 5 (Suppl 2): 0427). Bio-ADM was determined as described by Weber et al., 2017. ADM-Gly was determined as described in example 4.
substance,measurement,setting,value
"HAM8101: humanized N-terminal anti-ADM antibody, heavy chain SEQ ID No. 35, light chain SEQ ID No. 36",ADM-Gly/bioADM Ratio,Healthy HAM8101 treated (1 h),0.61
same,ADM-Gly/bioADM Ratio,Healthy HAM8101 treated (4 h),0.33
same,ratio of ADM-Gly/bio-ADM,"group 1 (0.5 mg/kg), after 1 h, FIG. 12",approximately 0.75
same,ratio of ADM-Gly/bio-ADM,"group 1 (0.5 mg/kg), after 24 hours",No further change
same,ratio of ADM-Gly/bio-ADM,"group 1 (0.5 mg/kg), four hours after administration",approximately 0.38
same,ratio of ADM-Gly/bio-ADM,"group 2 (2 mg/kg), after 1 h",~0.63
same,ratio of ADM-Gly/bio-ADM,"group 2 (2 mg/kg), after 24 hours",No further change
same,ratio of ADM-Gly/bio-ADM,"group 2 (2 mg/kg), four hours after administration",~0.25
same,ratio of ADM-Gly/bio-ADM,"group 3 (8 mg/kg), after 1 h",~0.43
same,ratio of ADM-Gly/bio-ADM,"group 3 (8 mg/kg), after 24 hours",approximately 0.5
same,ratio of ADM-Gly/bio-ADM,"group 3 (8 mg/kg), four hours after administration",approximately 0.38
